How the values were obtained:
Type in all cases: physicochemical
[1] = Dyad photophysical properties in toluene, excited at 405 nm; set-up: ext coeff (abs max B) / brightness (abs max): unit not given here; settings: for ext coeff (405 nm) / brightness (405 nm): at 405 nm; for ext coeff (405 nm) / FWHM / QY (x405) / abs max B / abs max Qx / abs max Qy / ext coeff (abs max B) / em max: room temperature; for ext coeff (405 nm): in M-1 cm-1 (unit assumed); for FWHM: emission peak; for FWHM / QY (x405) / em max: excited at 405 nm; for QY (x405): fluorescence quantum yield; for brightness (405 nm) / brightness (abs max): molar absorption coefficient x fluorescence quantum yield; for brightness (405 nm): in M⁻¹cm⁻¹; for brightness (abs max): at abs max
Protocol: (§1) The photophysical properties of samples were tested in toluene at room temperature and excited at 405 nm.

[2] = Brightness of hydroporphyrin monomers vs. porphyrin-hydroporphyrin dyads at 405 nm excitation; settings: for fold change: brightness of dyad vs. corresponding hydroporphyrin monomer, 405 nm; for FWHM: emission peak narrowness; for QY (x405): fluorescence quantum yield in toluene at room temperature; for ext coeff (405 nm): molar absorption coefficient at 405 nm, in M-1 cm-1 (unit assumed); for brightness (405 nm): product of molar absorption coefficient at 405 nm and fluorescence quantum yield, in M⁻¹cm⁻¹; for brightness (405 nm) / abs max B / em max: toluene, room temperature
Protocol: Brightness was calculated using an excitation wavelength of 405 nm for a hydroporphyrin monomer having an emission wavelength of approximately 660, 680, 715, or 800 nm and for a fluorescent compound including a porphyrin and a hydroporphyrin structurally similar to the hydroporphyrin monomer. Brightness was calculated as the product of the molar absorption coefficient at 405 nm and the fluorescence quantum yield in toluene at room temperature. Table 3 provides the emission wavelength of the hydroporphyrin monomer and the corresponding dyad, the brightness of the hydroporphyrin monomer excited at 405 nm, the brightness of the dyad excited at 405 nm, and the fold change in brightness of the hydroporphyrin monomer compared to the brightness of the dyad.

[3] = Comparison porphyrin photophysical properties in toluene, excited at 405 nm; settings: for ext coeff (405 nm) / brightness (405 nm): at 405 nm; for ext coeff (405 nm) / QY (x405) / abs max B / abs max Qx / em max / ext coeff (abs): room temperature; for ext coeff (405 nm) / ext coeff (abs): in M-1 cm-1 (unit assumed); for QY (x405): fluorescence quantum yield; for QY (x405) / em max: excited at 405 nm; for brightness (405 nm) / brightness (abs max): molar absorption coefficient x fluorescence quantum yield; for brightness (405 nm): in M⁻¹cm⁻¹; for brightness (abs max): at abs max
Protocol: as §1

| SMILES | ext coeff (405 nm) [1] | FWHM [1] | QY (x405) [1] | brightness (405 nm) [1] | brightness (abs max) [1] | abs max B [1] | abs max Qx [1] | abs max Qy [1] | ext coeff (abs max B) [1] | em max [1] | also measured |
| --- | --- | --- | --- | --- | --- | --- | --- | --- | --- | --- | --- |
| COC(=O)c1ccc(C#Cc2cc3cc4nc(cc5[nH]c(cc6nc(c(OC)c2[nH]3)CC6(C)C)cc5C#Cc2ccc(-c3c5nc(cc6ccc(cc7nc(cc8ccc3[nH]8)C=C7)[nH]6)C=C5)cc2)CC4(C)C)cc1 [Dyad P1-BC1] | 276,800 | 21 nm | 0.23 | 64,405 | 64,405 | 405 nm | 529 nm | 760 nm | 276,800 | 765 nm |  |
| COC(=O)c1c(C#Cc2ccc(-c3c4nc(cc5ccc(cc6nc(cc7ccc3[nH]7)C=C6)[nH]5)C=C4)cc2)c2cc3nc(c(OC)c4[nH]c(cc5nc(cc1[nH]2)CC5(C)C)c(C#Cc1ccc(-c2c5nc(cc6ccc(cc7nc(cc8ccc2[nH]8)C=C7)[nH]6)C=C5)cc1)c4C(=O)OC)CC3(C)C [Dyad P1-BC2] | 325,400 | 31 nm | 0.19 | 60,845 | 60,845 | 405 nm | 499 nm | 795 nm | 325,400 | 804 nm | fold change [2]: 18.6; FWHM [2]: 31 nm; QY (x405) [2]: 0.19; ext coeff (405 nm) [2]: 325,400; brightness (405 nm) [2]: 60,845; abs max B [2]: 405 nm; em max [2]: 804 nm |
| CC1(C)OB(c2ccc(CNC(=O)c3ccc(C4=C5C=CC(=N5)C=c5ccc6[n]5[Zn][n]5c(ccc54)C=C4C=CC(=N4)C=6)cc3)cc2)OC1(C)C [Dyad P2] |  |  |  |  |  |  |  |  |  |  | ext coeff (405 nm) [3]: 209,100; QY (x405) [3]: 0.03; brightness (405 nm) [3]: 5,899; brightness (abs max) [3]: 6,466; abs max B [3]: 407 nm; abs max Qx [3]: 533 nm; em max [3]: 623 nm; ext coeff (abs) [3]: 229,200 |
| Cc1cc(C)c(-c2c3nc(cc4ccc([nH]4)c(-c4ccc(C(=O)NCc5ccc(B6OC(C)(C)C(C)(C)O6)cc5)cc4)c4nc(cc5ccc2[nH]5)C=C4)C=C3)c(C)c1 [Dyad P3] |  |  |  |  |  |  |  |  |  |  | ext coeff (405 nm) [3]: 234,100; QY (x405) [3]: 0.04; brightness (405 nm) [3]: 9,628; brightness (abs max) [3]: 12,560; abs max B [3]: 409 nm; abs max Qx [3]: 503 nm; em max [3]: 702 nm; ext coeff (abs) [3]: 305,400 |
| COC(=O)c1ccc(-c2c(C(=O)OC)c3cc4nc(cc5[nH]c(c(OC)c6nc(cc2[nH]3)C(C)(C)C6)c(C(=O)OC)c5C#Cc2ccc(C3=C5C=CC(=N5)C=c5ccc6[n]5[Zn][n]5c(ccc53)C=C3C=CC(=N3)C=6)cc2)C(C)(C)C4)cc1 [Dyad P8-BC2] | 227,600 | 29 nm | 0.20 | 46,569 | 52,298 | 408 nm | 538 nm | 769 nm | 255,600 | 777 nm |  |
| COC(=O)c1ccc(-c2c3nc(cc4[nH]c(cc5nc(cc6[nH]c2cc6-c2ccc(CNC(=O)c6ccc(C7=C8C=CC(=N8)C=c8ccc9[n]8[Zn][n]8c(ccc87)C=C7C=CC(=N7)C=9)cc6)cc2)CC5(C)C)cc4-c2ccccc2)C=C3)cc1 [P2-C1, methyl ester] | 346,400 | 18 nm | 0.25 | 87,748 | 94,791 | 407 nm | 533 nm | 652 nm | 374,100 | 656 nm | fold change [2]: 2.5; FWHM [2]: 18 nm; QY (x405) [2]: 0.25; ext coeff (405 nm) [2]: 346,400; brightness (405 nm) [2]: 87,748; abs max B [2]: 407 nm; em max [2]: 656 nm |
| COC(=O)c1ccc(C2=c3ccc4[n]3[Zn][n]3c(ccc3C(c3ccc(C#Cc5ccc(C6=c7ccc8[n]7[Zn][n]7c(ccc7C=C7N=C(C=8)CC7(C)C)C=C7C=CC6=N7)cc5)cc3)=C3C=CC(=N3)C=4)C=C3C=CC2=N3)cc1 [P9-C4, methyl ester] | 181,500 | 14 nm | 0.04 | 8,055 | 11,570 | 414 nm | 540 nm | 607 nm | 260,700 | 608 nm |  |

Second part, led by results:

| ext coeff (405 nm) [1] | FWHM [1] | QY (x405) [1] | brightness (405 nm) [1] | brightness (abs max) [1] | abs max B [1] | abs max Qx [1] | abs max Qy [1] | ext coeff (abs max B) [1] | em max [1] | SMILES | also measured |
| --- | --- | --- | --- | --- | --- | --- | --- | --- | --- | --- | --- |
| 238,800 | 17 nm | 0.34 | 80,567 | 81,579 | 406 nm | 499 nm | 680 nm | 241,800 | 682 nm | COC(=O)c1ccc(-c2c3nc(cc4[nH]c(cc5nc(cc6[nH]c2cc6C#Cc2ccc(-c6c7nc(cc8ccc(cc9nc(cc%10ccc6[nH]%10)C=C9)[nH]8)C=C7)cc2)CC5(C)C)cc4C#Cc2ccc(-c4c5nc(cc6ccc(cc7nc(cc8ccc4[nH]8)C=C7)[nH]6)C=C5)cc2)C=C3)cc1 [Dyad P1-C6] | fold change [2]: 6.4; FWHM [2]: 17 nm; QY (x405) [2]: 0.34; ext coeff (405 nm) [2]: 238,800; brightness (405 nm) [2]: 80,567; abs max B [2]: 406 nm; em max [2]: 682 nm |
| 318,900 |  | 0.07 | 22,648 | 23,813 | 407 nm | 532 nm | 656 nm | 335,300 | 659 nm | COC(=O)c1ccc(-c2c3nc(cc4ccc(cc5nc(cc6[nH]c2cc6C#Cc2ccc(CNC(=O)c6ccc(C7=C8C=CC(=N8)C=c8ccc9[n]8[Zn][n]8c(ccc87)C=C7C=CC(=N7)C=9)cc6)cc2)CC5(C)C)[nH]4)C=C3)cc1 [Dyad P4-C3] |  |
| 227,900 | 15 nm | 0.21 | 47,083 | 60,532 | 410 nm | 505 nm | 659 nm | 293,000 | 660 nm | COC(=O)c1ccc(-c2c3nc(cc4ccc(cc5nc(cc6[nH]c2cc6C#Cc2ccc(-c6c7nc(cc8ccc([nH]8)c(-c8c(C)cc(C)cc8C)c8nc(cc9ccc6[nH]9)C=C8)C=C7)cc2)CC5(C)C)[nH]4)C=C3)cc1 [P7-C1; P6-C3] |  |
| 241,700 | 15 nm | 0.33 | 80,872 | 88,133 | 408 nm | 534 nm | 659 nm | 263,400 | 661 nm | COC(=O)c1ccc(-c2c3nc(cc4ccc(cc5nc(cc6[nH]c2cc6C#Cc2ccc(C6=C7C=CC(=N7)C=c7ccc8[n]7[Zn][n]7c(ccc76)C=C6C=CC(=N6)C=8)cc2)CC5(C)C)[nH]4)C=C3)cc1 [P8-C2, methyl ester] |  |
